Results from ChEMBL document CHEMBL5055659, “Photosensitive and Photoswitchable TRPA1 Agonists Optically Control Pain through Channel Desensitization” (J Med Chem, 2021).
Active and inactive are the calls of the source. The calls are words filed in the database; no cut-off is given here.

How the values were obtained:
[1] = molecular target: T1, Transient receptor potential cation channel subfamily A member 1 (Homo sapiens, UniProt O75762); test: Agonist activity at human TRPA1 expressed in HEK293 cells assessed as induction of Ca2+ influx at 300 uM measured under 365 nm UV irradiation by Fluo-8 based calcium imaging assay; format: cell-based; conditions: filed as agonist
T1 sequence (O75762 whole entry): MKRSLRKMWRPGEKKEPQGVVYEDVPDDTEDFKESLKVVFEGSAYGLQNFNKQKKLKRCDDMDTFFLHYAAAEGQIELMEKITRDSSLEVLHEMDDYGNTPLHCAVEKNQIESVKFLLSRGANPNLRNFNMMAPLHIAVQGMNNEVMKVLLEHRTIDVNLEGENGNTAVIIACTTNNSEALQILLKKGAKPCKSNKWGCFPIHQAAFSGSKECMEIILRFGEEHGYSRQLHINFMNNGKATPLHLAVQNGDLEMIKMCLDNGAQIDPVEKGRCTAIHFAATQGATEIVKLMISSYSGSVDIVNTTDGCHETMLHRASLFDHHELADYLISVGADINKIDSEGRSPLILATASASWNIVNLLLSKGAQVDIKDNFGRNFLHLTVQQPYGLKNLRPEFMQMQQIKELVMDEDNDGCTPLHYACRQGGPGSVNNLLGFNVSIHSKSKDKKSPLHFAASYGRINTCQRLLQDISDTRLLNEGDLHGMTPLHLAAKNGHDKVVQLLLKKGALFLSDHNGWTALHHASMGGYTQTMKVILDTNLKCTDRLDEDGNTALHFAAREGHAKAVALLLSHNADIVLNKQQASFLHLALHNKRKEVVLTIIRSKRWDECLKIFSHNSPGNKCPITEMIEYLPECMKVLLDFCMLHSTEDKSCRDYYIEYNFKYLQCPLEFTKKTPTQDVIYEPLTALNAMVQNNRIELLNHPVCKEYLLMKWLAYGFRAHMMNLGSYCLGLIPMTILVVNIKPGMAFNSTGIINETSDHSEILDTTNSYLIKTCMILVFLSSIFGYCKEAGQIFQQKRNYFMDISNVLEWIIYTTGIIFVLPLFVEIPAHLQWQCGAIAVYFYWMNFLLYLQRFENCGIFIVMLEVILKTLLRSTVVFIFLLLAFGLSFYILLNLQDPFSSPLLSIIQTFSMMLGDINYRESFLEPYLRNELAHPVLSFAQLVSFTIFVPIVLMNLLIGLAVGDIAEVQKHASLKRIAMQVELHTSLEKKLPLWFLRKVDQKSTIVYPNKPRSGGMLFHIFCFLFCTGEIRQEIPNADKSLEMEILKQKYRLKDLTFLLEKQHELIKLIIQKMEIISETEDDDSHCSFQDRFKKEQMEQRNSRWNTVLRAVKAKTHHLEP

[2] = molecular target: T1, Transient receptor potential cation channel subfamily A member 1; test: Inhibition of fluorescent probe A1CA binding to TRPA1 (unknown origin) expressed in CHO cells assessed as decrease in fluorescent intensity at 10 uM incubated for 2 mins by confocal fluorescence microscopy; format: cell-based
HEK293 = test: Induction of Ca2+ influx in TRPA1 untransfected HEK293 cells at 10 uM measured under 365 nm UV irradiation by Fluo-8 based calcium imaging assay; format: functional, cell-based; conditions: Homo sapiens
[3] = Photostability of the compound in bath solution by measuring reversible photo-isomerism measured after exposure to 365 to 530 nm UV irradiation by UV spectra; format: physicochemical
[4] = Drug metabolism in bath solution assessed as photochemical switch by measuring cis-isoform at 50 uM measured after exposure to 365 nm UV irradiation by HPLC analysis; format: physicochemical
[5] = molecular target: T1, Transient receptor potential cation channel subfamily A member 1; test: Agonist activity at human TRPA1 expressed in HEK293 cells assessed as induction of Ca2+ influx at 10 uM measured under 365 nm UV irradiation by Fluo-8 based calcium imaging assay; format: cell-based; conditions: filed as agonist
[6] = molecular target: T1, Transient receptor potential cation channel subfamily A member 1; test: Agonist activity at human TRPA1 expressed in HEK293 cells assessed as induction of Ca2+ influx at 10 uM measured under dark by Fluo-8 based calcium imaging assay; format: cell-based
Mus musculus [7] = organism: Mus musculus; test: Antinociceptive activity against capsaicin-induced wild type C57BL/6J mouse left check pain model assessed as reduction in frequency of wiping within 10 mins at 1 mM smeared on left check followed by exposed to 365 nm UV light; format: functional, organism-based
[8] = Drug metabolism in cyclohexane assessed as thermal isomerization by measuring half life at 50 uM at 25 degC by UV-vis spectroscopy; format: physicochemical
[9] = Drug metabolism in cell external solution assessed as thermal isomerization by measuring half life at 50 uM at 25 degC by UV-vis spectroscopy; format: ADME
[10] = molecular target: T1, Transient receptor potential cation channel subfamily A member 1; test: Agonist activity at TRPA1 expressed in CHO cells assessed as reversal of activated channel current in presence of 410 - 420 nm UV irradiation at 100 uM by whole-cell patch clamp electrophysiology; format: cell-based
[11] = molecular target: T1, Transient receptor potential cation channel subfamily A member 1; test: Agonist activity at TRPA1 expressed in CHO cells assessed as activation of channel current in presence of 330 - 380 nm UV irradiation by whole-cell patch clamp electrophysiology; format: cell-based
[12] = Drug metabolism in bath solution assessed as photochemical switch by measuring trans-isoform reversal at 50 uM measured after exposure to 415 nm UV irradiation by HPLC analysis; format: physicochemical
Mus musculus [13] = organism: Mus musculus; test: Antinociceptive activity against capsaicin-induced wild type C57BL/6J mouse left check pain model assessed as reduction in frequency of wiping within 10 mins at 1 mM smeared on left check; format: functional, organism-based
[14] = molecular target: Transient receptor potential cation channel subfamily A member 1 (Mus musculus) (UniProt Q8BLA8); test: In vivo induction of TRPA1 channel desensitization in capsaicin-induced wild type C57BL/6J mouse left check pain model assessed as macroscopic current desensitization at 300 uM treated 11 consecutive repeat measured after exposed to 365 nm UV light; format: functional, organism-based
[15] = molecular target: Sodium channel protein type 5 subunit alpha (Homo sapiens, UniProt Q14524); test: Effect on Nav1.5 (unknown origin) transfected in CHO cells assessed as activation of channel current in presence of 365 nm UV irradiation by whole-cell patch clamp electrophysiology; format: cell-based
Sodium channel protein type 5 subunit alpha, sequence (Q14524 whole entry): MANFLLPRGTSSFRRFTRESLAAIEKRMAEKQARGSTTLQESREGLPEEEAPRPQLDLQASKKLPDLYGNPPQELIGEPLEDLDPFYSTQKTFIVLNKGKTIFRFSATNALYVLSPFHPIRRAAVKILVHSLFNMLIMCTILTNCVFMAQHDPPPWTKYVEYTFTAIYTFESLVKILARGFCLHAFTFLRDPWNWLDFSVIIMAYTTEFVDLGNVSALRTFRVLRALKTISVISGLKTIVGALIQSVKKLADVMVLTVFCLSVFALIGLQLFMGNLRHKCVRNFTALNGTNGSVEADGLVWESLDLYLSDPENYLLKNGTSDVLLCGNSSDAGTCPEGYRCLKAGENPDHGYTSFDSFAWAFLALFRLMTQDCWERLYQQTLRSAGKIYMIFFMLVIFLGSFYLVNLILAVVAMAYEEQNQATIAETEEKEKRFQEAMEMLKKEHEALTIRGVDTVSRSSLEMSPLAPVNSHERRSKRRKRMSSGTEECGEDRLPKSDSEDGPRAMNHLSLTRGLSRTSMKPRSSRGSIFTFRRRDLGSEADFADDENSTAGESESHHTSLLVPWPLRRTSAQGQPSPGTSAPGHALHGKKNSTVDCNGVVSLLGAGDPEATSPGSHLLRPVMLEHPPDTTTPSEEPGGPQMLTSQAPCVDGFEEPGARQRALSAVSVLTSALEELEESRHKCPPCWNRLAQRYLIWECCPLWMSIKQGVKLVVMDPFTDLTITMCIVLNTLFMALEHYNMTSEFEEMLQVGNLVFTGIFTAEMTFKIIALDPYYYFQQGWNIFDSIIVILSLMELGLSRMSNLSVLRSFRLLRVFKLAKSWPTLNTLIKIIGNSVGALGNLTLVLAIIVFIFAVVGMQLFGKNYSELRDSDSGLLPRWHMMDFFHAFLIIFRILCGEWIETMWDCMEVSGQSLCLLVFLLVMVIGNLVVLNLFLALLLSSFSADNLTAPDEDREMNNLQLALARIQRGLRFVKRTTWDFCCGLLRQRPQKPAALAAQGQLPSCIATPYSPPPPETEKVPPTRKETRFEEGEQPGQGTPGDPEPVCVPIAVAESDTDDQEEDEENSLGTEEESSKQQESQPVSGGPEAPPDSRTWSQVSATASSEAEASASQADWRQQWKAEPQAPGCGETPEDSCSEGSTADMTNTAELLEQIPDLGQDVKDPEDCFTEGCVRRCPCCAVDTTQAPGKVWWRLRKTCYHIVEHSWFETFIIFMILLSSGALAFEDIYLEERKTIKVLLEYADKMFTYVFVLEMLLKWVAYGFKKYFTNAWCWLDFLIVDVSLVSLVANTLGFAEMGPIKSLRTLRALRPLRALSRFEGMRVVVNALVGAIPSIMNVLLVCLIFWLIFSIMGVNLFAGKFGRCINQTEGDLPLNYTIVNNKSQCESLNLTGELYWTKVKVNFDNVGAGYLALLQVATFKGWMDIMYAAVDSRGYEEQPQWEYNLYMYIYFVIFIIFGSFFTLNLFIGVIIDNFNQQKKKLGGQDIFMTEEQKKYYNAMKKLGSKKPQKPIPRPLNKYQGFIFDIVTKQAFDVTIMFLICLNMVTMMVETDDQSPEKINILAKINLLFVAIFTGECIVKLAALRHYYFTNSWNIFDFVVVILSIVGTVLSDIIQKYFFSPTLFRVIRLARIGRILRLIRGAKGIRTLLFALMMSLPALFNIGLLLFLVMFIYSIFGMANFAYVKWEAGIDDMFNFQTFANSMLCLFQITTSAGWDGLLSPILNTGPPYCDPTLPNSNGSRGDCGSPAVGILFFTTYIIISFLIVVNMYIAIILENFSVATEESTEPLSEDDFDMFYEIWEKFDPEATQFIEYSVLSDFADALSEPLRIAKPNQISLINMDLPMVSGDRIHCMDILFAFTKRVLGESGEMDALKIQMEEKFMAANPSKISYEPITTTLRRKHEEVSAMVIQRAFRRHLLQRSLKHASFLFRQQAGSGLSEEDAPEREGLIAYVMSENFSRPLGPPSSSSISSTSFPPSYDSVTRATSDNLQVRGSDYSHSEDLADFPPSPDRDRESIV

[16] = molecular target: Sodium channel protein type 4 subunit alpha (Homo sapiens) (UniProt P35499); test: Effect on Nav1.4 (unknown origin) transfected in CHO cells assessed as activation of channel current in presence of 365 nm UV irradiation by whole-cell patch clamp electrophysiology; format: cell-based
Sodium channel protein type 4 subunit alpha (Homo sapiens), sequence (P35499 whole entry, looked up): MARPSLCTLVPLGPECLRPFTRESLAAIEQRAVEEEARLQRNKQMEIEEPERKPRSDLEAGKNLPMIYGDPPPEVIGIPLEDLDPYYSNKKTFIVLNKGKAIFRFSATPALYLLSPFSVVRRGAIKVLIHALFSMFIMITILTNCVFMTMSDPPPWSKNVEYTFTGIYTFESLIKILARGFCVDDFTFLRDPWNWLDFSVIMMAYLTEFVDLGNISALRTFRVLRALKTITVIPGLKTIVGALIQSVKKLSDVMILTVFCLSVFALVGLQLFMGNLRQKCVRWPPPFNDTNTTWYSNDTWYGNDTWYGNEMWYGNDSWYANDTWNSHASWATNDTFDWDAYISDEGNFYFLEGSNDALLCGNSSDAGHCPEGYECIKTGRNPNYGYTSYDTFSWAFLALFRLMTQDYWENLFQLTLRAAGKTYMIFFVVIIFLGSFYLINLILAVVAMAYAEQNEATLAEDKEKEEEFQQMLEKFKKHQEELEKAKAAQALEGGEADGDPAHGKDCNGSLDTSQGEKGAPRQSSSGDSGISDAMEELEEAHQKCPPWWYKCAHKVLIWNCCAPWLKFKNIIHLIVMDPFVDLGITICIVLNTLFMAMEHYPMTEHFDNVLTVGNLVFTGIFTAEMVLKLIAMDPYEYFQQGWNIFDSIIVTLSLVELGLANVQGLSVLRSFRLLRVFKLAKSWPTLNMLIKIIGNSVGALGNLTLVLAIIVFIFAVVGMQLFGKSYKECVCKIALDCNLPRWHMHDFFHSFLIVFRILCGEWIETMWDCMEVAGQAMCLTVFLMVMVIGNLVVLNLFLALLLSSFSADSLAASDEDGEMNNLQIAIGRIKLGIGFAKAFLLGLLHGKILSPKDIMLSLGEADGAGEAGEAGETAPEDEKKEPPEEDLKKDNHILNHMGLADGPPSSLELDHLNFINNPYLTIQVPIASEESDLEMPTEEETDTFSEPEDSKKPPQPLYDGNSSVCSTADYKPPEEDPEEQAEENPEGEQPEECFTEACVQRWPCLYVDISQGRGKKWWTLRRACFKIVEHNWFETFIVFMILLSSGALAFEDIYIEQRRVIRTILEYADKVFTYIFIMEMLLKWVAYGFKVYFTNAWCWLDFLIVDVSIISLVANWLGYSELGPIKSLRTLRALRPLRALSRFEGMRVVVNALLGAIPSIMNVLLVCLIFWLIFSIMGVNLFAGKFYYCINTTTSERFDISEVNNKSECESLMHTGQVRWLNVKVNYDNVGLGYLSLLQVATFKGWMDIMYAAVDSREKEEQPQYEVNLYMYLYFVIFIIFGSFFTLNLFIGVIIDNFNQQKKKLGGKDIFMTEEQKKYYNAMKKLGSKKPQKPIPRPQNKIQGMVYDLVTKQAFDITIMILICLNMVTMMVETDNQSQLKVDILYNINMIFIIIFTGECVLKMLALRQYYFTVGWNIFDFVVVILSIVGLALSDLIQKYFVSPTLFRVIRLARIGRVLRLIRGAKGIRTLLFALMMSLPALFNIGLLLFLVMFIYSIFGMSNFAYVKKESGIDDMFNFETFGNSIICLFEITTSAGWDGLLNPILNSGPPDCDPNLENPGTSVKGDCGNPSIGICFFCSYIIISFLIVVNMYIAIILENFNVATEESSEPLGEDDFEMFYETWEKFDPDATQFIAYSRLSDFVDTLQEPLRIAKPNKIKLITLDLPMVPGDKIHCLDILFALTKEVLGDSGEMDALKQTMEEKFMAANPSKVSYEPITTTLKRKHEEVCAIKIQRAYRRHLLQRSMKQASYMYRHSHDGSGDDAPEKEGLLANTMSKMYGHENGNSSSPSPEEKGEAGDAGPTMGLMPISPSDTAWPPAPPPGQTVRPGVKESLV

[17] = molecular target: Transient receptor potential cation channel subfamily V member 4 (Homo sapiens) (UniProt Q9HBA0); test: Effect on TRPV4 (unknown origin) transfected in CHO cells assessed as activation of channel current in presence of 365 nm UV irradiation by whole-cell patch clamp electrophysiology; format: cell-based
Mus musculus [18] = organism: Mus musculus; test: Antinociceptive activity against capsaicin-induced […] knock-out C57BL/6J mouse left check pain model assessed as reduction in frequency of wiping within 10 mins at 1 mM smeared on left check followed by exposed to 365 nm UV light; format: functional, organism-based
[19] = molecular target: T2, Transient receptor potential cation channel subfamily V member 3 (Homo sapiens) (UniProt Q8NET8); test: Effect on TRPV3 (unknown origin) transfected in CHO cells assessed as activation of channel current in presence of 365 nm UV irradiation by whole-cell patch clamp electrophysiology; format: cell-based
T2 sequence (whole entry): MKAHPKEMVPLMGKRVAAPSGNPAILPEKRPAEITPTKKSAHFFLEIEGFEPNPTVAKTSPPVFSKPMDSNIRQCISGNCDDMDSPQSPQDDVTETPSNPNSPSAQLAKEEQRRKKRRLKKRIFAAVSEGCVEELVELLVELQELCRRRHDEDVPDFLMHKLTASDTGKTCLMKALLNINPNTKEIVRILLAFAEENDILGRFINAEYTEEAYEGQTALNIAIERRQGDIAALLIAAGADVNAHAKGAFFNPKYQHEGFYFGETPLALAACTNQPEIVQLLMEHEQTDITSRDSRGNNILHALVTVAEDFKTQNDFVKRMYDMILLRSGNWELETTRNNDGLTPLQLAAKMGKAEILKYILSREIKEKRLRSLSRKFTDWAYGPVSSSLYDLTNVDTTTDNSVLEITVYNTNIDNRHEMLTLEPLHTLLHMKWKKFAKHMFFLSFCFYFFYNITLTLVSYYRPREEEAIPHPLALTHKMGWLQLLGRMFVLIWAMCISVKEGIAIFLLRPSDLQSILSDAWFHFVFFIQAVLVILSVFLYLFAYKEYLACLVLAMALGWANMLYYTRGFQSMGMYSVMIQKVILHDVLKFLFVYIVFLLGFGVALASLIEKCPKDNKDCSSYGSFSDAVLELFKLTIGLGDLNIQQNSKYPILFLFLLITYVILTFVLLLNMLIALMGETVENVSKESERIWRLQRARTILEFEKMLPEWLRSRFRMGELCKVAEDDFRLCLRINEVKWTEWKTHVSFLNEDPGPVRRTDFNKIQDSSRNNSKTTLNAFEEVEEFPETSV

Structure (SMILES)	Activity [1]	inhibition [2]	Activity (HEK293)	Stability [3]	Drug metabolism [4]	Activity [5]	Activity [6]	Activity (Mus musculus [7])	half-life at 50 µM [8] [min]	half-life at 50 µM [9] [min]	Activity [10]	EC50 [11] [µM]	Drug metabolism [12]	Activity (Mus musculus [13])	Activity [14]	Activity [15]	Activity [16]	Activity [17]	Activity (Mus musculus [18])	Activity [19]
C=CCN=C=S	Active	–	–	–	–	–	–	–	–	–	–	–	–	–	–	–	–	–	–	–
Nc1cccc(/N=N/c2ccccc2)c1	–	Active	inactive	Stable	Metabolite_Notdetected	Active	inactive	–	–	–	–	–	–	–	–	–	–	–	–	–
C[C@H](CCC(=O)O)C[C@H](C)C[C@H](C)C(=O)/C=C(\O)[C@H](C)C[C@H](C)C/C=C/[C@@H](C)[C@@H](O)[C@@H](C)[C@@H](O)C[C@@H]1CC[C@@](C)([C@H]2CC[C@@](C)([C@@H](C)O)O2)O1	–	–	–	–	–	Active	–	–	–	–	–	–	–	–	–	–	–	–	–	–
Oc1ccc(/N=N/c2ccccc2)cc1	–	Active	–	–	–	–	–	–	–	–	–	–	–	–	–	–	–	–	–	–
Oc1cccc(/N=N/c2ccccc2)c1	–	Active	inactive	Stable	Metabolite_Detected	Active	inactive	inactive	1.65	2.43	inactive	104	Metabolite_Detected	–	–	–	–	–	–	–
Cc1cnccc1/N=N/c1ccccc1	–	Active	inactive	Stable	Metabolite_Notdetected	Active	inactive	inactive	1.67	–	–	19.2	–	–	–	–	–	–	–	–
c1ccc(/N=N/c2ccncc2)cc1	–	Active	–	–	–	–	–	–	–	–	–	–	–	–	–	–	–	–	–	–
Clc1cc(/N=N/c2ccccc2)ccn1	–	Active	inactive	Stable	Metabolite_Detected	Active	inactive	Active	5.3	9.67	–	5.55	Metabolite_Detected	inactive	Active	Not Active	inactive	inactive	inactive	inactive
O=C(O)c1ccc(/N=N/c2ccccc2)cc1	–	Active	inactive	Stable	Metabolite_Detected	Active	inactive	Active	1.35	6.55	–	24.8	Metabolite_Detected	inactive	Active	Not Active	inactive	inactive	inactive	inactive
